Assays:
[1] = test system: rats with chronic heart failure; assay: Rat model of chronic heart failure, left coronary artery occlusion, anesthetized (Example 10); details: HF rats
[2] = biological target: T1, Natriuretic Peptide Receptor-A (NPR-A) signaling in MDCK cells (Canis lupus familiaris, UniProt A0A8I3MHU3); type: cell-based, canine; details: stimulation of cGMP accumulation in MDCK cells
T1 sequence (A0A8I3MHU3 32-1060): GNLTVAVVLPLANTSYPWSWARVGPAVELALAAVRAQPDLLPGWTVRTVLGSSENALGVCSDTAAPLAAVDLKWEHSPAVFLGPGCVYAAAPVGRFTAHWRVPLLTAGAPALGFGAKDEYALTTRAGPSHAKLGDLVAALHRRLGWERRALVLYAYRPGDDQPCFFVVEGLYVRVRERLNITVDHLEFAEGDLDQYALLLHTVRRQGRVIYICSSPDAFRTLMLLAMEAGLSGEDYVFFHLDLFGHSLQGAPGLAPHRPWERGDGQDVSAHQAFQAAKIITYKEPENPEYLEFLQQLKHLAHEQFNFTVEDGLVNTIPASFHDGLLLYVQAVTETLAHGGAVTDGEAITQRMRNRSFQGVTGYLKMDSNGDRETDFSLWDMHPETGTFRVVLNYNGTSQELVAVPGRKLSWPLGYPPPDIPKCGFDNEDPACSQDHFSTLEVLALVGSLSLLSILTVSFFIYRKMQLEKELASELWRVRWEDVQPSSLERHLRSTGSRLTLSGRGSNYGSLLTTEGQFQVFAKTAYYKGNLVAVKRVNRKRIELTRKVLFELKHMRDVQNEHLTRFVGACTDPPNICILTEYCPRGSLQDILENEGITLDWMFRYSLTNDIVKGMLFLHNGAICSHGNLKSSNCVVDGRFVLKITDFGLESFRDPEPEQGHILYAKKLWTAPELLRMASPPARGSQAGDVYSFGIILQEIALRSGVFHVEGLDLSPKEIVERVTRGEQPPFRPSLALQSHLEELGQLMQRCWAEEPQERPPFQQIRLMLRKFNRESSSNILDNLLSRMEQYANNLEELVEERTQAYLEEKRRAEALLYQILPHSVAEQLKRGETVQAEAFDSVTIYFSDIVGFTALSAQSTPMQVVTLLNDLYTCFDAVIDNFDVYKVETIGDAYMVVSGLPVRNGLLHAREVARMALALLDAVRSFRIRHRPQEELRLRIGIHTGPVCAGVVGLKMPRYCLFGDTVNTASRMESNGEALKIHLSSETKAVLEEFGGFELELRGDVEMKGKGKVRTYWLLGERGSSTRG

Plasmin = biological target: T2, Plasmin (Homo sapiens, UniProt P00747); assay: Stability to enzymatic degradation by plasmin (Examples 7, 16); type: in vitro ADME; details: plasmin, 37° C.
T2 construct: with 500 ng Endopeptidase (NEP) or 10 μg Plasmin
T2 sequence (P00747 97-580 partner limits assumed, species assumed): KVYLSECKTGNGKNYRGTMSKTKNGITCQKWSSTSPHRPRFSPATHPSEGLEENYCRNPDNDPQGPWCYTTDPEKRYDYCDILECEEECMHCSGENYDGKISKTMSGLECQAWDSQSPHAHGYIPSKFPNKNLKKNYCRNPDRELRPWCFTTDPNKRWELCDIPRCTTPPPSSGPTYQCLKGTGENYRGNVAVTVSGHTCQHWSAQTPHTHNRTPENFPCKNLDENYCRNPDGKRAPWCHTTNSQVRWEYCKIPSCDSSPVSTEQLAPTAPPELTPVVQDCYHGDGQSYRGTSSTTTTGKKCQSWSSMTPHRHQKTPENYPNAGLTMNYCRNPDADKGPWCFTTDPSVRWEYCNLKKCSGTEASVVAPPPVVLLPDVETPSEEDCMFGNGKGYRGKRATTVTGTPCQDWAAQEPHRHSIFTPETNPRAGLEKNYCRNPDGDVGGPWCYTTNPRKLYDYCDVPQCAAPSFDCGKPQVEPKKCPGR
T2 sequence (P00747 581-810 limits assumed, species assumed): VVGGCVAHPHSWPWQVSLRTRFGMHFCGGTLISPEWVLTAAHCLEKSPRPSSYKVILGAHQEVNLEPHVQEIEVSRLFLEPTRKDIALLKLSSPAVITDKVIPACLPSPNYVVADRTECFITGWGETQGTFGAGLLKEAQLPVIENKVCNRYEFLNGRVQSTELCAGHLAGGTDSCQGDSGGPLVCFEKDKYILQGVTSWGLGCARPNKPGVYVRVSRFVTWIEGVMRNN
Protocol: The incubation buffer contained 100 mM Tris/HCl and 150 mM NaCl and the pH was adjusted to 7.2-7.4. In each assay, 100 μl of peptide [500 μM] was incubated with 300 μl buffer (with 500 ng Endopeptidase (NEP) or 10 μg Plasmin) at 37° C. 50 μl aliquots were taken at times 5 min, 30 min, 60 min, 90 min, 180 min and 24 h. The reaction was quenched by heating to 100° C. for 4 min and the remaining peptide concentrations measured by RP-HPLC. Note that the levels of Plasmin required to degrade these peptides was several thousands time the levels present in human plasma.
The stability of TDT and was investigated using the same enzymatic degradation assays (NEP, plasmin, pepsin) disclosed in Example 7. […] It is also evident that the increased NEP stability cannot be explained by the length of the tail region alone as the NEP cleavage site residues at the N-terminal end of the loop region.

normal rats = assay: Hemodynamic parameters in normal anesthetized rats (Example 10)
conscious rabbits = assay: Blood pressure and heart rate in conscious rabbits, intravenous infusion dose-response (Example 8)
[3] = test system: denuded aortic rings, GC A receptor; assay: Relaxation of noradrenaline constricted endothelium-denuded aortic rings (Example 11); parameters: species or system rat; details: GC-A mediated
Protocol: Male Sprague Dawley rats were killed and the descending thoracic aorta rapidly removed and flushed with physiological solution. After being cleared of adhering fat and connective tissue, 5 mm rings were mounted under 10 g resting tension, between two stainless steel hooks, in organ baths (37° C.) containing carbogenated (95% O2 and 5% CO2) physiological salt solution of the following composition (mM): NaCl, 118.4; NaHCO3, 25; glucose, 11; KCl, 4.7; MgSO4, 1.2; KH2PO4, 1.2 and CaCl2, 2.5. The lower hook was attached to a tissue holder and the upper hook to a force displacement transducer (Grass FTO3). Where indicated endothelial cells were removed by gentle rubbing of the intimal surface with a wire. To confirm the presence or absence of endothelial cells, tissues were precontracted with a sub-maximal concentration of phenylephrine (0.3 μM) and the response to acetylcholine (ACh, 10 μM) observed. Ach-induced relaxation greater than 80% of maximum indicated the presence of endothelium; whereas Ach-induced relaxation less than 10% indicated the absence of endothelium. Ring preparations under resting tension were conditioned by two contraction/relaxation cycles with 40 mM KCl, contracted by a third application of 40 mM KCl and then relaxed with different doses of the venom peptides. Responses were expressed as a percentage relaxation of the precontraction by KCl.
In addition to the peptides tested in example 3, a series of 13 analogs corresponding to the 2a, 2b and 2c grouping of peptides were examined for their ability to dilate noradrenaline constricted aortic rings. The degree of constriction was expressed as a percentage of the KCl induced constriction. The aortic rings were prepared in a manner similar to the method described in example 3. […]. In each case there were at least 3 separate aortic rings tested per peptide and all were denuded of endothelium to ensure responses were confined to the GC A receptor.

[4] = after 1 hour recovery period, Table 10A

## CC[C@H](C)[C@@H]1NC(=O)[C@H](CCCNC(=N)N)NC(=O)[C@H](CC(=O)O)NC(=O)[C@H](CCSC)NC(=O)[C@H](CCCCN)NC(=O)[C@H](CCCNC(=N)N)NC(=O)CNC(=O)[C@H](Cc2ccccc2)NC(=O)[C@@H](NC(=O)CNC(=O)[C@H](CO)NC(=O)CNC(=O)[C@H](CCC(N)=O)NC(=O)[C@@H](NC(=O)[C@H](CCSC)NC(=O)[C@H](CCCCN)NC(=O)[C@@H]2CCCN2C(=O)[C@@H](N)CO)C(C)C)CSSC[C@@H](C(=O)N[C@@H](CCCCN)C(=O)N[C@H](C(=O)N[C@@H](CC(C)C)C(=O)N[C@@H](CCCNC(=N)N)C(=O)N[C@@H](CCCNC(=N)N)C(=O)N[C@@H](Cc2c[nH]cn2)C(=O)O)C(C)C)NC(=O)CNC(=O)[C@H](CC(C)C)NC(=O)CNC(=O)[C@H](CO)NC(=O)[C@H](CO)NC(=O)[C@H](CO)NC(=O)[C@H](CO)NC1=O [hBNP]
[1]; 50 pmol/kg/min, 30 min
  Blood Flow, mean change from control: -1.6 mL/min
  Conductance, mean change from control: −0.3 ml/min/mmHg
  Diastolic LVP, mean change from control: −0.7 mmHg
  HCT, mean change from control: 1.9%
  HR, mean change from control: −12.3 bpm
  Mean BP, mean change from control: −9.6 mmHg
  Urine Flow, mean change from control: 0.8 mL/h
[1]; 100 pmol/kg/min, 30 min
  Blood Flow, mean change from control: -2.9 mL/min
  Conductance, mean change from control: 0.2 ml/min/mmHg
  Diastolic LVP, mean change from control: −1.2 mmHg
  HCT, mean change from control: 0.3%
  HR, mean change from control: −40.5 bpm
  Mean BP, mean change from control: −26.5 mmHg
  Urine Flow, mean change from control: 0.7 mL/h
[1]; Recovery
  Blood Flow, mean change from control: -1.0 mL/min
  Conductance, mean change from control: 0.5 ml/min/mmHg
  Diastolic LVP, mean change from control: 1.9 mmHg
  HCT, mean change from control: −1.3%
  HR, mean change from control: −41.7 bpm
  Mean BP, mean change from control: −14.6 mmHg
  Urine Flow, mean change from control: -0.2 mL/h
[1]; average of the two doses
  Blood Flow, Average drug response SED: -2.2 ± 0.4 mL/min
  Conductance, Average drug response SED: −0.1 ± 0.3 ml/min/mmHg
  Diastolic LVP, Average drug response SED: −1.0±1.0 mmHg
  HCT, Average drug response SED: 1.1 ± 0.8%
  HR, Average drug response SED: −26.4 ± 23.0 bpm
  Mean BP, Average drug response SED: −18.1±6.3 mmHg
  Urine Flow, Average drug response SED: 0.7 ± 0.3 mL/h
[2]
  −Log10 EC50 (pEC50) ± Standard Error: 9.165 ± 0.1039
[2]; read-out: EC50 (M) ± Standard Error
  EC50: 9.07e-10 M
Plasmin; plasmin in Tris/HCl-NaCl buffer, read-out: HalfLife in plasmin
  half-life at 125 μM: 13.1 min
Plasmin
  K (one phase exponential decay, best fit values): 0.053
  PLATEAU (one phase exponential decay, best fit values): 0.03403
  SPAN (one phase exponential decay, best fit values): 0.9926
Normal rats; 50 pmol/kg/min, 30 min
  Blood Flow, mean change from control: -1.9 mL/min
  Conductance, mean change from control: −1.1 ml/min/mmHg
  Diastolic LVP, mean change from control: −0.1 mmHg
  HCT, mean change from control: 1.0%
  HR, mean change from control: −16.6 BPM
  Mean BP, mean change from control: −6.4 mmHg
  Urine Flow, mean change from control: 0.2 mL/h
Normal rats; 100 pmol/kg/min, 30 min
  Blood Flow, mean change from control: -2.6 mL/min
  Conductance, mean change from control: −1.2 ml/min/mmHg
  Diastolic LVP, mean change from control: 0.1 mmHg
  HCT, mean change from control: 3.5%
  HR, mean change from control: −5.3 BPM
  Mean BP, mean change from control: −14.9 mmHg
  Urine Flow, mean change from control: 0.7 mL/h
Normal rats; Recovery
  Blood Flow, mean change from control: -3.6 mL/min
  Conductance, mean change from control: −1.3 ml/min/mmHg
  Diastolic LVP, mean change from control: −0.2 mmHg
  HCT, mean change from control: −0.3%
  HR, mean change from control: 1.3 BPM
  Mean BP, mean change from control: −14.1 mmHg
  Urine Flow, mean change from control: 0.6 mL/h
Normal rats; average of the two doses
  Blood Flow, Average drug response SED: -2.2 ± 1.0 mL/min
  Conductance, Average drug response SED: −1.1 ± 0.4 ml/min/mmHg
  Diastolic LVP, Average drug response SED: 0.0 ± 0.3 mmHg
  HCT, Average drug response SED: 2.2 ± 0.6%
  HR, Average drug response SED: −10.9 ± 7.1 BPM
  Mean BP, Average drug response SED: −10.7 ± 4.7 mmHg
  Urine Flow, Average drug response SED: 0.5 ± 0.4 mL/h
Conscious rabbits; bolus injection of 0.24 mg/kg TNPc or equivalent molar dose of BNP
  time taken to recover to 50% of the peak response: 80 min

## SDSKIGNGCFGFPLDRIGSVSGLGCNRIMQNRPKKFSGE (A portion of a natriuretic peptide) [TNPc P32R]
[3]
  Mean relaxation SEM of denuded aortic rings expressed as % of KCl response: 66.4 ± 8.8%
Conscious rabbits; [4]
  Recovery (MAP): 57.6 mm Hg
  Recovery Delta SED (MAP): 0.1 ± 1.4 mm Hg
Conscious rabbits; highest dose, Table 10A
  MAP at final dose: 57.5 mm Hg
Conscious rabbits; highest dose, Table 10A, groups 1, 2A and 3
  Treatment Effect, change of mean blood pressure during the infusion: −19.9 mm Hg
Conscious rabbits; one hour after the end of infusion
  recovery of MAP from the hypotension, in words: did recover from the hypotension

Source: US8058242B2, “Chimeric proteins with natriuretic activity” (The University of Queensland, priority 2004, dated 2011)
